Here are results for one compound from patent publication US7071231B2, “Naphthalene ureas as glucose uptake enhancers” (Telik, Inc., priority 1999, dated 2006).

Series [1] in a line: Distribution of compound-[14C]-15 after oral administration. The series is classed as in vivo, rat. Conditions: STZ/HFD rats, single oral dose 30 mg/kg 14C-labeled, two hours later. The method, then:
Distribution of Compound-[14C]-15 After Oral Administration
STZ/HFD rats, prepared as in Example 19, were given a single oral dose of 30 mg/kg compound-[14C]-15 labeled with 50 μCi of 14C prepared as in Example 11A. Two hours later the animals were euthanized and 200 mg samples of various tissues were removed by an IACUC-approved protocol. The tissue samples were homogenized and their radioactivity content was measured by scintillation counting. The highest levels of radioactivity were found in the pancreas, liver, and thigh muscle. These corresponded to Compound 15 concentrations of approximately 780 nM, 200 nM, and 175 nM, respectively. These concentrations would be sufficient to produce insulin receptor phosphorylation in vitro. Lower levels of radioactivity indicative of 50 nM to 100 nM concentrations of the compound were found in abdominal muscle, fat, kidney, and spleen.

The target in the next series is CYP3A4 (Homo sapiens, UniProt P08684). In words: P450 interactions: CYP3A4 inhibition. The series is classed as in vitro ADME. Conditions: human cytochromes P450. From the text:
(§1) A major pathway for elimination of drugs from the body, which may limit their effectiveness, is the cytochrome P450 system of the liver.

Another series deals with CYP2C9 (Homo sapiens, UniProt P11712). Put plainly: P450 interactions: CYP2C9 inhibition. The series is classed as in vitro ADME. The following applies: human cytochromes P450.
Chain of CYP2C9 (P11712 whole entry): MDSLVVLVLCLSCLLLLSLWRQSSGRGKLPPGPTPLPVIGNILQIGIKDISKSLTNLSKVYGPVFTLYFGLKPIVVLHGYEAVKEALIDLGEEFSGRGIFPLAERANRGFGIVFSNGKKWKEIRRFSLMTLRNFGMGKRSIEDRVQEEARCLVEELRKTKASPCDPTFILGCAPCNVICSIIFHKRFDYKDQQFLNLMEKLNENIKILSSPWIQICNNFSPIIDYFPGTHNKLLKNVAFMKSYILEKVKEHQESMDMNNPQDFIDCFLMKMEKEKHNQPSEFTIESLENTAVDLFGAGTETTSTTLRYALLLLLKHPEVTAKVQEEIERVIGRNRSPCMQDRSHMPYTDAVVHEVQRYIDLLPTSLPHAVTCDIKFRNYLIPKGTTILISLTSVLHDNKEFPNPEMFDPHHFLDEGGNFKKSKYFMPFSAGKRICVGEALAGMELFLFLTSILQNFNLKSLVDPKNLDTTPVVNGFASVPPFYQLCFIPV
From the text: as §1

In the next series the test system is 3T3 L1 fibroblasts. Put plainly: Glucose transport activity assay (14C-2-deoxy-D-glucose uptake). The series is classed as cell-based. The method in brief:
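Differentiated 3T3 L1 adipocytes (IBMX/dexamethasone/insulin induction), serum-starved overnight, preincubated 30 min at 37 °C with compound ± insulin in pH 7.4 salt buffer, then 30 min with 5 μCi/ml 14C-2-deoxy-D-glucose. Lysate radioactivity counted; EC = concentration raising uptake above 150% of vehicle control.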

For the next series, the target named is T1, human insulin receptor (Homo sapiens, UniProt P06213).
T1 construct: expressed in transfected cells; host or cells: NIH 3T3 (3T3HIR)
T1 sequence (P06213 763-1382 limits assumed): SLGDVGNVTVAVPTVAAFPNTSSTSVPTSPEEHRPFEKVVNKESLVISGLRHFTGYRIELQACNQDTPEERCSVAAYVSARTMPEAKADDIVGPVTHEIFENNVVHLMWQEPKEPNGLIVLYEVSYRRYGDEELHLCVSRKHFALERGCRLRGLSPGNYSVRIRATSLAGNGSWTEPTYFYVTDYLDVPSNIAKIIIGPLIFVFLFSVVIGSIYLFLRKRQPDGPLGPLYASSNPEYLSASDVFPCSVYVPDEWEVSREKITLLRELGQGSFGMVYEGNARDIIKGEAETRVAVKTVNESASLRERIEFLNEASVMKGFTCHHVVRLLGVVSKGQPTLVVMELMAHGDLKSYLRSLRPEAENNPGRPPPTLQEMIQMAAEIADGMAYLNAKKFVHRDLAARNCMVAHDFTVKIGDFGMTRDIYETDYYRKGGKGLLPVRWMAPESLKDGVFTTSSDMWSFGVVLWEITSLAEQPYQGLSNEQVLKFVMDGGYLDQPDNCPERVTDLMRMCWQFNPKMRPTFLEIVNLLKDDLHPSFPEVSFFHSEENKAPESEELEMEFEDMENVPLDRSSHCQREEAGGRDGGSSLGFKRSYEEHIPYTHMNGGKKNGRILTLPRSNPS
T1 sequence (P06213 28-758 partner limits assumed): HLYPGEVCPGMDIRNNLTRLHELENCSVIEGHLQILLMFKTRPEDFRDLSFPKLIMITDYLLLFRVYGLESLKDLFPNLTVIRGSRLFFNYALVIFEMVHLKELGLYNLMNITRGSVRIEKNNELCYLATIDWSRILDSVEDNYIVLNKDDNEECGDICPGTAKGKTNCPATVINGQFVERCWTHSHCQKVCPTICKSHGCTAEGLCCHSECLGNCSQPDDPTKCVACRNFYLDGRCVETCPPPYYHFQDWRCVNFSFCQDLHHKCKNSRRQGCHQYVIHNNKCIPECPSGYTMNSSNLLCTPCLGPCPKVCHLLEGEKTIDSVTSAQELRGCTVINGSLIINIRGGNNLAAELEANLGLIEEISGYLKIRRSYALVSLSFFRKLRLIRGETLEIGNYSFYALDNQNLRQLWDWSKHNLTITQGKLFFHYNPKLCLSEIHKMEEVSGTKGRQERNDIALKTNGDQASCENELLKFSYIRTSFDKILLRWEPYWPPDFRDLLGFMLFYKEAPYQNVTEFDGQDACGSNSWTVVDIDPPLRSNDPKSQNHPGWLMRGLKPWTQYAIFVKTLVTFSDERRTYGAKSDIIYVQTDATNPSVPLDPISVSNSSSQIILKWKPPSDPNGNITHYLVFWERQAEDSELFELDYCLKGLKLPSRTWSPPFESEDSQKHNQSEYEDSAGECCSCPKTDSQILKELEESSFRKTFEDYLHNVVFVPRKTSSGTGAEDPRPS
In words: Whole-cell phosphorylation assay (3T3HIR cells). Format: cell-based. Conditions: 15 min, anti-phosphotyrosine Western, various concentrations (FIG. 2). On the procedure:
Whole-cell Phosphorylation Assay:
The initial step in insulin signaling is phosphorylation of the insulin receptor in response to insulin binding. NIH 3T3 cells overexpressing human insulin receptor (3T3HIR) were grown for 2 days at a density of 2×10^5/ml cells in 6 well culture dishes in DMEM with 10% FBS and L-glutamine. Prior to the experiment the cells were serum-starved overnight with DMEM with 0.1% BSA. The following morning, the cells were washed with PBS and the medium was replaced with 150 mM NaCl, 1.7 mM KCl, 0.9 mM CaCl2, K2HPO4 (pH 7.4), to which were added either the experimental compounds, or their vehicle (DMSO). Insulin or its vehicle (0.01% BSA) was diluted in the assay buffer (containing test compound or vehicle, respectively) to a final concentration of 2.5 nM. After incubating for 15 min, the cells were washed with cold PBS twice and lysed in 50 mM Tris.HCl, pH 7.4 150 mM NaCl, 0.25% sodium deoxycholate, 1% NP-40, 1 mM EGTA, 1 mM PMSF, 1 mM Na3VO4, 1 mM NaF, 1 ug/ml each of Aprotinin, Leupeptin and Pepstatin. The cell lysates were clarified by centrifugation at 12000 rpm, and the supernatants were estimated for protein concentration. Total cell lysate ([…]) was boiled with 2× SDS-PAGE sample buffer for 3 min and loaded into 7.5% SDS-PAGE along with Amersham rainbow marker protein as a molecular weight standard. […]

A further series has as its system male db/db mice. Put plainly: Acute toxicity in db/db mice. The series is classed as in vivo. The following applies: i.p., 300 mg/kg in PBS. The method, then:
Compound 15 was administered in PBS vehicle to male db/db mice (i.p.) and male CD rats (p.o.) at 300 mg/kg, which is approximately 10 times its effective dose.

The next series concerns the target CYP1A2 (Homo sapiens, UniProt P05177). In words: P450 interactions: CYP1A2 inhibition. Format: in vitro ADME. The following applies: human cytochromes P450.
From the text: as §1

Chain of CYP1A2 (P05177 whole entry): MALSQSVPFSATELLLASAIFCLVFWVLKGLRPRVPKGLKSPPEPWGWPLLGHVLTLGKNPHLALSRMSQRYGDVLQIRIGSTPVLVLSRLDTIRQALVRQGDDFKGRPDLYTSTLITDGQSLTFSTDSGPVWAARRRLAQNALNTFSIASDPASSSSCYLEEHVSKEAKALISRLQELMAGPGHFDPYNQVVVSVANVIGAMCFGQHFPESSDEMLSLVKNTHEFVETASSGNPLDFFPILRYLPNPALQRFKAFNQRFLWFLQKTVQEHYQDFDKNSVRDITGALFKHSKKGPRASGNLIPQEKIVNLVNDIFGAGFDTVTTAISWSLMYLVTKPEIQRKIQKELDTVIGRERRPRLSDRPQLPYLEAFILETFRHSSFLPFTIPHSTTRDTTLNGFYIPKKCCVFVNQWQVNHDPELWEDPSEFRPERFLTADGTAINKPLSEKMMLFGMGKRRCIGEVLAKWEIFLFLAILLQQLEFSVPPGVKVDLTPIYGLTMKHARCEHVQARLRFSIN
Chain of CYP3A4 (P08684 whole entry): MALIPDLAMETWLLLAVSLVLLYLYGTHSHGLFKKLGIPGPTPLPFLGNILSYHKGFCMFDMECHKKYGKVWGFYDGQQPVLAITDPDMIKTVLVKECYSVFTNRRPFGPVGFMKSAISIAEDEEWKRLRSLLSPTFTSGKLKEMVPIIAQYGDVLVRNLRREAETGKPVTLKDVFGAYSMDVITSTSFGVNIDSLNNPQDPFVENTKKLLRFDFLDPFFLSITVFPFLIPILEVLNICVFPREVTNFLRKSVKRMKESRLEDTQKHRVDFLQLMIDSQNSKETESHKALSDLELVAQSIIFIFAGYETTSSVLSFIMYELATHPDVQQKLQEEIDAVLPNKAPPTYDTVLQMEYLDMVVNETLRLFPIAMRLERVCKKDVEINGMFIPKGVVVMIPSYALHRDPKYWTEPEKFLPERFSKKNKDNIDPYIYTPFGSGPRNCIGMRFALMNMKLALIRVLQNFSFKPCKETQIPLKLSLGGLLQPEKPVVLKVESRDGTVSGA

Take `O=C(Nc1ccc2c(O)cc(S(=O)(=O)Nc3cccc(S(=O)(=O)O)c3)cc2c1)Nc1ccc2c(O)cc(S(=O)(=O)Nc3cccc(S(=O)(=O)O)c3)cc2c1` [Compound 15, 3-{[(4-hydroxy-7-{[N-(5-hydroxy-7-{[(3-sulfophenyl)amino]sulfonyl}(2-naphthyl))carbamoyl]amino}-2-naphthyl)sulfonyl]amino}benzenesulfonic acid]: in series [1], the “amount of radioactivity in the blood” value was “not above background levels”; the “tissue concentration, liver” value is given as approximately 200 nM; the “tissue concentration, pancreas” value is on record as “approximately 780 nM”; the “tissue concentration, thigh muscle” value is given as approximately 175 nM. Moreover, at CYP3A4, the “inhibition of catalytic activity of CYP3A4” value is given as “did not inhibit”. Further, the “inhibition of catalytic activity of CYP2C9” value against CYP2C9 is given as “did not inhibit”. Besides, in the series on 3T3 L1 fibroblasts (Mus musculus, EC (effective concentration) for increase in glucose transport, 14C-2-deoxy-D-glucose, 3T3 L1 cells, read-out: Concentration (μM) to reach >150% activity of vehicle control), the EC (150% of vehicle control) is 3.2 µM. Also, the “glucose uptake of cells” value with 3T3 L1 fibroblasts (in the presence or absence of insulin (FIG. 3)) is recorded as “increase in glucose uptake of cells”. Besides, the “autophosphorylation of the insulin receptor in whole cells” value on human insulin receptor is “increase of autophosphorylation”. Further, the acute toxicity result in the series with male db/db mice was “No acute toxicity was seen”. In addition, the “inhibition of catalytic activity of CYP1A2” value against CYP1A2 was “did not inhibit”.
